Each structure is given as a SMILES string.

One assay has as its system KURAMOCHI cells. The assay is described as follows: Inhibition of proliferation of KURAMOCHI cells (CellTiter-Glo, intracellular ATP). Type of assay: cell-based. The following applies: 168 h, incubated for 7 days, read-out: IC50 against KURAMOCHI cells. As for the experimental part: In this experiment, the inhibitory effect of the compounds of the present disclosure on the proliferation of the cancer cell line KURAMOCHI was evaluated by measuring intracellular ATP levels using a bioluminescent assay, and the half maximal inhibitory concentration (IC50) was determined.
RPMI 1640 medium (Cat. No. 11875-093), fetal bovine serum (10099-141), and 100× Pen/Strep (15070-063) were purchased from GIBCO. CellTiter-Glo Luminescent Cell Viability Assay reagent (Cat. No. G7573) was purchased from Promega.
• 1) Day 1: KURAMOCHI cells were counted using a cell counter and seeded into a 96-well culture plate at a density of 4000 cells per well in 100 µL medium. The plate was incubated overnight in an incubator (37°C, 5% CO2). • 2) Day 2: Using a D300e digital dispenser (TECAN), 500 nL of serially diluted test compounds of the present disclosure (starting at 10 µM, a total of 9 concentrations, 1:4 dilution) were added to the cells in the culture plate. The final concentration of DMSO was 0.5%. The cell culture plate was incubated for 7 days in a cell culture incubator (37°C, 5% CO2). Control group 1 received only medium and DMSO (100% inhibition group). Control group 2 received only DMSO (0% inhibition group). The final concentration of DMSO in both groups was 0.5%. • 3) Day 9: 100 µL of CellTiter-Glo reagent was added to each well. The plate was shaken at 500 rpm for 2 minutes, centrifuged at 1000 rpm for 1 minute, and then incubated at room temperature in the dark for 10 minutes to stabilize the luminescence signal. • 4) Luminescence signals were measured using an EnVision microplate reader (PerkinElmer). • 5) Data analysis was performed using GraphPad Prism 8. The IC50 values of the compounds of the present disclosure were calculated as follows. The CTG signal values were analyzed. The average inhibition rate of control group 1 (100% inhibition group) was set as the relative inhibition rate of 100%. The average inhibition rate of control group 2 (0% inhibition group) was set as the relative inhibition rate of 0%. The CTG signal values were converted into relative inhibition rates. The inhibition percentage (inhibition%) for each concentration of the compounds of the present disclosure was calculated according to the following formula: Inhibition% = (b−x)/(b−a)*100%; [formula] • a = CTG value (highest concentration), b = CTG value (blank well), x = CTG value (test well). • IC50 was calculated using GraphPad Prism 8. • (1) The concentration and inhibition rate corresponding to each well were recorded. Statistical calculation was performed using Log10 (compound concentration). • (2) The data were input into GraphPad Prism 8 and Analysis was selected. • (3) Nonlinear regression (curve fit) was selected. • (4) Log (inhibitor) vs. response - Variable slope was selected. • (5) The calculation formula was selected, and the calculation was performed according to the following formula: Y = Bottom + (Top - Bottom) / (1 + 10 ^ ((LogIC50 - X) * HillSlope)); X: log of dose or concentration; Y: response; Top and Bottom: maximum and minimum response. • (6) The IC50 values were calculated by fitting the data. Table 16: Inhibitory effect of the compounds of the present disclosure on the proliferation of KURAMOCHI cells
A general note: ATP-based viability assays read luminescence as a measure of living cells.
On to `C[C@H]1CN(c2cc(S(=O)(=O)NC3(C)CC3)cc3c(-c4nnc(C(F)F)s4)noc23)C[C@H](C)N1` [Compound 021B], for which the half-inhibitory concentration (IC50) is 11 nM.

Regarding `C=CCn1c(=O)n(-c2nnc(C(F)F)s2)c2cc(S(=O)(=O)NC3(C#N)CC3)cc(N3CC4CC3CN4S(=O)(=O)C(C)C)c21` (centres unmarked) [Compound 069E], the IC50 came to 55 nM.

Turning to `C=CCn1c(=O)n(-c2nnc(C(F)F)s2)c2cc(S(=O)(=O)NC3(C#N)CC3)cc(N3CCN(C(=O)C4CC(F)(F)C4)CC3)c21` [Compound 072D], the IC50 amounted to 52 nM.

For the compound `C[C@H]1CN(c2cc(S(=O)(=O)NC3(C)CC3)cc3c2nc(-c2nccs2)n3-c2nnc(C(F)F)s2)C[C@H](C)N1` [Compound 077S], the IC50 turned out to be 58 nM.

On to `C=CC1CN(c2cc(S(=O)(=O)NC3(C)CC3)cc3c2cnn3-c2nnc(C(F)F)s2)C[C@H](C)N1` (some centres unmarked) [Compound 078A], for which the half-maximal inhibitory concentration (IC50) is 30 nM.

On to `C#CC1CN(c2cc(S(=O)(=O)NC3(C)CC3)cc3c2cnn3-c2nnc(C(F)F)s2)C[C@H](C)N1` (some centres unmarked) [Compound 078B], for which the IC50 turned out to be 34 nM.

In the next assay the target is T1, PARG (Homo sapiens, UniProt Q86W56).
T1 construct: made in house
T1 sequence (Q86W56 whole entry): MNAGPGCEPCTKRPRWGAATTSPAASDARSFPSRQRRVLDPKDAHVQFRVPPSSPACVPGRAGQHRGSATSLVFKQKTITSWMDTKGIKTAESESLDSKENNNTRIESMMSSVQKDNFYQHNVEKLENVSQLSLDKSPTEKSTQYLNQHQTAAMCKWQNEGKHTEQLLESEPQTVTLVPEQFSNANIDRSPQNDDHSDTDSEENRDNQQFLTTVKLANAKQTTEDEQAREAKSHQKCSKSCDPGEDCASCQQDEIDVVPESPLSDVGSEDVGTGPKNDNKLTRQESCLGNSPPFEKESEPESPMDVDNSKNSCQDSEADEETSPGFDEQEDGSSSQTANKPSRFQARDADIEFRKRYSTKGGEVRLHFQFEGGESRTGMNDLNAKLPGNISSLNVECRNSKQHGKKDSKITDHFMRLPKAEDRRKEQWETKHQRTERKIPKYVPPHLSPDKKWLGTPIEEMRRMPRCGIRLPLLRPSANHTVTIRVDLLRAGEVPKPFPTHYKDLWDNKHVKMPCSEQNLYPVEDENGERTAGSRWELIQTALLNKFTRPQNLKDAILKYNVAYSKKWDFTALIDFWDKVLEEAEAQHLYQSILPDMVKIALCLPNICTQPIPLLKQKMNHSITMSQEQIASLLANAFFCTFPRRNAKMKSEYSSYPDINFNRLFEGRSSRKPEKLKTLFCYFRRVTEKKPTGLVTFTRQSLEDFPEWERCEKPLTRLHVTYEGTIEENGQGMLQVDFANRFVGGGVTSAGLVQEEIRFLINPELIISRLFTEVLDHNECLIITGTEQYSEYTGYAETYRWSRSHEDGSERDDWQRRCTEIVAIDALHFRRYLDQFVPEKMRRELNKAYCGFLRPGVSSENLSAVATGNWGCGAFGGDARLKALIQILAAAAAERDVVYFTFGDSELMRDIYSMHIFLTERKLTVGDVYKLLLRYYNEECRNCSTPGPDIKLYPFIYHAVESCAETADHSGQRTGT
The assay is described as follows: Enzymatic inhibitory activity against PARG, HTRF assay. Type of assay: biochemical. The conditions noted are these: HTRF; PARylated PARP1 protein as substrate; 60 minutes at room temperature; read-out: IC50 against PARG enzyme. As for the experimental part: In this experiment, the enzymatic inhibitory activity of the compounds of the present disclosure against PARG was determined using an HTRF (homogeneous time-resolved fluorescence) assay.
HTRF assay reagents were purchased from PerkinElmer (Cat. Nos. 61HISTLB and 610SAXLB). The purified protein was prepared in-house.
PARG enzyme reaction buffer: 50 mM Tris (pH 7.4), 0.1 mg/mL BSA, 3 mM EDTA, 0.4 mM EGTA, 1 mM DTT, 50 mM KCl, and 0.01% Tween 20.
• 1) Using an ultra-micro pipette, the compounds of the present disclosure were serially diluted (starting at 10 µM with 3- to 5-fold serial dilutions) and added to a 384-well reaction plate, with each concentration tested in duplicate wells. Control group 1 was added with 10 µM control compound (100% inhibition group). Control group 2 was added with DMSO (0% inhibition group). After compound addition, the 384-well plate was centrifuged at 1000 rpm for 1 minute. • 2) 2.5 µL of PARG protein was added to each well and incubated with the compounds of the present disclosure at room temperature for 15 minutes, followed by centrifugation at 1000 rpm for 1 minute. • 3) 2.5 µL of PARylated PARP1 protein was added to each well and incubated at room temperature for 60 minutes, followed by centrifugation at 1000 rpm for 1 minute. • 4) 5 µL of His-Tb & SA-XL665 HTRF assay reagents were added to each well and incubated at room temperature for 60 minutes, followed by centrifugation at 1000 rpm for 1 minute. • 5) […] were measured using a PHERAstar FSX microplate reader from BMG. • 6) Data analysis was performed using GraphPad Prism 8. The IC50 values of the compounds of the present disclosure were calculated as follows. […] The average value of duplicate wells in control group 2 (0% inhibition group) was set as the relative inhibition rate of 0%. The HTRF signal values were converted into relative inhibition rates. The IC50 values of the compounds were calculated by fitting the data to a four-parameter logistic model. Table 15: Enzymatic inhibitory activity of the compounds of the present disclosure against PARG
Background: TR-FRET usually uses a lanthanide donor and a delayed reading to cut background.
For `CC(C)S(=O)(=O)N1CCN(c2cc(S(=O)(=O)NC3(C#N)CC3)cc3c2nc(OC2CC2)n3-c2nnc(C(F)F)s2)CC1` [Compound 057P], the IC50 was found to be 29.3 nM.

Consider `C=CCn1c(=O)n(-c2nnc(C(F)F)s2)c2cc(S(=O)(=O)NC3(C#N)CC3)cc(N3CCN(c4ncc[nH]4)CC3)c21` [Compound 067JD], for which the half-inhibitory concentration (IC50) was 31.6 nM.

Consider `C=CCn1c(=O)n(-c2nnc(C(F)F)s2)c2cc(S(=O)(=O)NC3(C#N)CC3)cc(N3CCN(C(=O)NC)CC3)c21` [Compound 067M], for which the half-inhibitory concentration (IC50) was determined as 29 nM.

Turning to `C=CCn1c(=O)n(-c2nnc(C(F)F)s2)c2cc(S(=O)(=O)NC3(C#N)CC3)cc(N3CCN(C(=O)C(C)C)[C@H](C)C3)c21` [Compound 069D], the IC50 amounted to 23.5 nM.

Turning to `CC(C)C(=O)N1CCN(c2cc(S(=O)(=O)NC3(C#N)CC3)cc3c2n(CC#N)c(=O)n3-c2nnc(C(F)F)s2)CC1` [Compound 074J], the IC50 came out at 10.8 nM.

Turning to `C=CCn1c(=O)n(-c2nnc(C(F)F)s2)c2cc(S(=O)(=O)NC3(C#N)CC3)cc(N3CCN(S(=O)(=O)c4ccn(C)n4)CC3)c21` [Compound 075B], the half-inhibitory concentration (IC50) stood at 35.7 nM.

Turning to `C=CCn1c(=O)n(-c2nnc(C(F)F)s2)c2cc(S(=O)(=O)NC3(C#N)CC3)cc(N3CCN(C(=O)C(C)(C)NC(=O)OC)CC3)c21` [Compound 076A], the half-inhibitory concentration (IC50) was determined as 13 nM.

`C=CCn1c(=O)n(-c2nnc(C(F)F)s2)c2cc(S(=O)(=O)NC3(C#N)CC3)cc(N3CCN(C(=O)C4(C)CCCN4)CC3)c21` (centres unmarked) [Compound 076B]: the IC50 was 9.7 nM.

Consider `C=CCn1c(=O)n(-c2nnc(C(F)F)s2)c2cc(S(=O)(=O)NC3(C#N)CC3)cc(N3CCN(C(=O)C4CCCN4)CC3)c21` (centres unmarked) [Compound 076C], for which the IC50 is 8.6 nM.

As for `C=CCn1c(=O)n(-c2nnc(C(F)F)s2)c2cc(S(=O)(=O)NC3(C#N)CC3)cc(N3CCN(C(=O)C4CCCN4C)CC3)c21` (centres unmarked) [Compound 076D], the half-maximal inhibitory concentration (IC50) turned out to be 14.7 nM.

On to `C=CCn1c(=O)n(-c2nnc(C(F)F)s2)c2cc(S(=O)(=O)NC3(C#N)CC3)cc(N3CCN(C(=O)[C@@H]4CCC5(CC5)N4)CC3)c21` [Compound 076F1], for which the IC50 was found to be 30.6 nM.

Turning to `C=CCn1c(=O)n(-c2nnc(C(F)F)s2)c2cc(S(=O)(=O)NC3(C#N)CC3)cc(N3CCN(C(=O)C4CCC(=O)N4)CC3)c21` (centres unmarked) [Compound 076G], the concentration for half-maximal inhibition (IC50) is 9 nM.

Take `C[C@H]1CN(c2cc(S(=O)(=O)NC3(C#N)CC3)cc3c2nc(C2CCCO2)n3-c2nnc(C(F)F)s2)C[C@H](C)N1` (some centres unmarked) [Compound 077J]: the IC50 turned out to be 10.4 nM.

For the compound `C[C@H]1CN(c2cc(S(=O)(=O)NC3(C)COC3)cc3c2nc(C2CCCO2)n3-c2nnc(C(F)F)s2)C[C@H](C)N1` (some centres unmarked) [Compound 077K], the IC50 stood at 12.8 nM.

Turning to `C[C@H]1CN(c2cc(S(=O)(=O)NC3(C)CC3)cc3c2nc(C2CNCCO2)n3-c2nnc(C(F)F)s2)C[C@H](C)N1` (some centres unmarked) [Compound 077Y], the IC50 was found to be 10.3 nM.

Regarding `C[C@H]1CN(c2cc(S(=O)(=O)NC3(C)CC3)cc3c2nc([C@@H]2CC4(CC4)CO2)n3-c2nnc(C(F)F)s2)C[C@H](C)N1` [Compound 079M2], the half-inhibitory concentration (IC50) is 1.9 nM.

`C[C@H]1CN(c2cc(S(=O)(=O)NC3(C)CC3)cc3c2nc(C2CCOC2)n3-c2nnc(C(F)F)s2)C[C@H](C)N1` (some centres unmarked) [Compound 079N]: the IC50 was determined as 6.2 nM.

For `C[C@H]1CN(c2cc(S(=O)(=O)NC3(C)CC3)cc3c2cc(N=S(C)(C)=O)n3-c2nnc(C(F)F)s2)C[C@H](C)N1` [Compound 082E], the IC50 is 5.5 nM.

For the compound `CN(C)C(=O)N1CCN(c2cc(S(=O)(=O)NC3(C#N)CC3)cc3c2n(CC(F)(F)F)c(=O)n3-c2nnc(C(F)F)s2)CC1` [Compound A044], the IC50 stood at 7 nM.

Consider `C=CCn1c(=O)n(-c2nnc(C(F)F)s2)c2cc(S(=O)(=O)NC3(C#N)CC3)cc(N3CCN(C(=O)NC4CC4)CC3)c21` [Compound A054], for which the IC50 came to 38.6 nM.

In the case of `CC(C)C(=O)N1CCN(c2cc(S(=O)(=O)NC3(C#N)CC3)cc3c2n(C2CC2)c(=O)n3-c2nnc(C(F)F)s2)CC1` [Compound A055], the half-inhibitory concentration (IC50) is 11.9 nM.

As to `CC(C)S(=O)(=O)N1CCN(c2cc(S(=O)(=O)NC3(C#N)CC3)cc3c2n(C2CC2)c(=O)n3-c2nnc(C(F)F)s2)CC1` [Compound A056], the IC50 is 5.2 nM.

`C[C@H]1CN(c2cc(S(=O)(=O)NC3(C)CC3)cc3c2ncn3-c2nnc(C(F)F)s2)C[C@H](C)N1` [Compound B004]: the concentration for half-maximal inhibition (IC50) was 15.6 nM.

As to `C[C@H]1CN(c2cc(S(=O)(=O)NC3(C)CC3)cc3c2ncn3-c2nnc(C(F)F)s2)C[C@H](C)N1C(=O)N(C)C` [Compound B005], the IC50 turned out to be 11.5 nM.

On to `CC(C)(O)C(=O)N1CCN(c2cc(S(=O)(=O)NC3(C#N)CC3)cc3c2ncn3-c2nnc(C(F)F)s2)CC1` [Compound B015], for which the IC50 came out at 15.8 nM.

As to `CN(C)C(=O)N1CC=C(c2cc(S(=O)(=O)NC3(C#N)CC3)cc3c2ncn3-c2nnc(C(F)F)s2)CC1` [Compound B022], the IC50 was 18.7 nM.

As for `CC(C)C(=O)N1CC=C(c2cc(S(=O)(=O)NC3(C#N)CC3)cc3c2ncn3-c2nnc(C(F)F)s2)CC1` [Compound B023], the half-maximal inhibitory concentration (IC50) is 16.7 nM.

With `C[C@H]1CN(c2cc(S(=O)(=O)NC3(C)CC3)cc3c2n2ccnc2n3-c2nnc(C(F)F)s2)C[C@H](C)N1` [Compound B024], the 50% inhibitory concentration (IC50) stood at 16.5 nM.

As to `C[C@H]1CN(c2cc(S(=O)(=O)NC3(C)CC3)cc3c2c2nccnc2n3-c2nnc(C(F)F)s2)C[C@H](C)N1` [Compound H001], the IC50 was 1.1 nM.

As a reminder, the IC50 is the concentration that gives 50% inhibition.

Values taken from patent EP4800013A1, “PARG INHIBITOR” (Shanghai Qilu Pharmaceutical Research and Development …, priority 2023, dated 2025).
